Assay results as given in PubChem BioAssay AID330 (DTP/NCI, 2004).
“And” between values parts separate entries of the source, which are not always exact repeats. Equal entries are not always repeated. Inconclusive results and toxic doses are left out. Square brackets hold non-standard residues; d marks the D form. Peptide text beside a SMILES is read from it. ξ: configuration not given here. Ac5c = NC1(C(=O)O)CCCC1; ξS = NC(CO)C(=O)O

Test system: P388 leukemia ip, CD2F1 mice, survival T/C
Assay: NCI In Vivo Anticancer Drug Screen. Data for tumor model P388 Leukemia (intraperitoneal) in CD2F1 (CDF1) mice
Settings: endpoint: median survival time, higher = longer survival
Procedure, shortened: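 Mice carrying the transplanted tumor received test compound or vehicle. Survival was recorded in each group, and the value is the treated-group measurement divided by that of the vehicle-treated control group.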

[1] = dose: 60.0 mg/kg/injection, schedule: Q01DX005 (ip), vehicle: saline
[2] = dose: 120.0 mg/kg/injection, schedule: Q01DX005 (ip), vehicle: saline
[3] = dose: 240.0 mg/kg/injection, schedule: Q01DX005 (ip), vehicle: saline
[4] = dose: 25.0 mg/kg/injection, schedule: Q01DX009 (ip), vehicle: saline with Tween-80
[5] = dose: 50.0 mg/kg/injection, schedule: Q01DX009 (ip), vehicle: saline with Tween-80
[6] = dose: 50.0 mg/kg/injection, schedule: Q01DX009 (ip), vehicle: saline
[7] = dose: 100.0 mg/kg/injection, schedule: Q01DX009 (ip), vehicle: saline with Tween-80
[8] = dose: 200.0 mg/kg/injection, schedule: Q01DX009 (ip), vehicle: saline with Tween-80
[9] = dose: 200.0 mg/kg/injection, schedule: Q01DX009 (ip), vehicle: saline
[10] = dose: 50.0 mg/kg/injection, schedule: Q01DX005 (ip), vehicle: Klucel (hydroxypropylcellulose) (HPC)
[11] = dose: 100.0 mg/kg/injection, schedule: Q01DX005 (ip), vehicle: Klucel (hydroxypropylcellulose) (HPC)
[12] = dose: 50.0 mg/kg/injection, schedule: Q01DX005 (ip), vehicle: saline with Tween-80
[13] = dose: 100.0 mg/kg/injection, schedule: Q01DX005 (ip), vehicle: saline with Tween-80
[14] = dose: 200.0 mg/kg/injection, schedule: Q01DX005 (ip), vehicle: saline with Tween-80
[15] = dose: 100.0 mg/kg/injection, schedule: Q01DX009 (ip), vehicle: saline
[16] = dose: 60.0 mg/kg/injection, schedule: Q01DX005 (ip), vehicle: saline with Tween-80
[17] = dose: 120.0 mg/kg/injection, schedule: Q01DX005 (ip), vehicle: saline with Tween-80
[18] = dose: 240.0 mg/kg/injection, schedule: Q01DX005 (ip), vehicle: saline with Tween-80
[19] = dose: 50.0 mg/kg/injection, schedule: Q01DX009 (ip), vehicle: Klucel (hydroxypropylcellulose) (HPC)
[20] = dose: 100.0 mg/kg/injection, schedule: Q01DX009 (ip), vehicle: Klucel (hydroxypropylcellulose) (HPC)
[21] = dose: 200.0 mg/kg/injection, schedule: Q01DX009 (ip), vehicle: Klucel (hydroxypropylcellulose) (HPC)
[22] = dose: 100.0 mg/kg/injection, schedule: Q01DX001 (ip), vehicle: Klucel (hydroxypropylcellulose) (HPC)
[23] = dose: 200.0 mg/kg/injection, schedule: Q01DX001 (ip), vehicle: Klucel (hydroxypropylcellulose) (HPC)
[24] = dose: 400.0 mg/kg/injection, schedule: Q01DX001 (ip), vehicle: Klucel (hydroxypropylcellulose) (HPC)
[25] = dose: 200.0 mg/kg/injection, schedule: Q04DX003 (ip), vehicle: saline with Tween-80

## NC(=O)C(CCCCNc1c(C(=O)O)cc([N+](=O)[O-])cc1[N+](=O)[O-])NC(=O)c1ccccc1 (stereo unspecified)
[1]
  T/C: 100 % of control
[2]
  T/C: 105 % of control
[3]
  T/C: 100 % of control

## Nc1ccc(S(=O)c2ccc(N)cc2)cc1
dose: 6.25 mg/kg/injection, schedule: Q04DX003 (ip), vehicle: saline
  T/C: 118 % of control
dose: 12.5 mg/kg/injection, schedule: Q04DX003 (ip), vehicle: saline
  T/C: 107 % of control
dose: 25.0 mg/kg/injection, schedule: Q04DX003 (ip), vehicle: saline
  T/C: 104 % of control
dose: 50.0 mg/kg/injection, schedule: Q04DX003 (ip), vehicle: saline
  T/C: 109 % of control

## N=C(N)S(=O)O
[4]
  T/C: 99 % of control
[5]
  T/C: 100 % of control
[6]
  T/C: 96 % of control
[7]
  T/C: 98 % of control
[8]
  T/C: 101 % of control
[9]
  T/C: 95 % of control

## O=C1C=CC(=O)C2=C1C1c3ccccc3C2c2ccccc21
[10]
  T/C: 101 % of control
[11]
  T/C: 110 % of control

## CON1C(=O)OCC(c2ccccc2)(c2ccccc2)C1=O
[12]
  T/C: 99 % of control
[13]
  T/C: 104 % of control
[14]
  T/C: 91 % of control

## c1ccc2c(C3CO3)c3ccccc3c(C3CO3)c2c1 (stereo unspecified)
[6]
  T/C: 99 % of control
[15]
  T/C: 116 % of control
[9]
  T/C: 116 % of control

## Nc1n[nH]c(N)n1
[7]
  T/C: 109 % of control
dose: 800.0 mg/kg/injection, schedule: Q01DX009 (ip), vehicle: saline with Tween-80
  T/C: 163 % of control

## COc1ccc(-c2cn3c([nH]c(=O)c4cc(Br)ccc43)c2C#N)cc1
[16]
  T/C: 91 % of control
[17]
  T/C: 93 % of control
[18]
  T/C: 87 % of control

## Cc1ccc(S(=O)(=O)NN=C(c2ccccc2)c2ccccc2)cc1
dose: 12.5 mg/kg/injection, schedule: Q01DX009 (ip), vehicle: Klucel (hydroxypropylcellulose) (HPC)
  T/C: 98 % of control
dose: 25.0 mg/kg/injection, schedule: Q01DX009 (ip), vehicle: Klucel (hydroxypropylcellulose) (HPC)
  T/C: 93 % of control
[19]
  T/C: 87 % of control
[20]
  T/C: 88 % of control
[21]
  T/C: 86 % of control

## NNc1ncnc2cccc(Cl)c12
[16]
  T/C: 94 % of control
[17]
  T/C: 98 % of control
[18]
  T/C: 92 % of control

## Cc1ccc(OP(=O)(Oc2ccc(C)cc2)Oc2ccc(C)cc2)cc1.Cc1ccc(OP(=O)(Oc2ccc(C)cc2)Oc2ccc(C)cc2)cc1.Cc1ccc(OP(=O)(Oc2ccc(C)cc2)Oc2ccc(C)cc2)cc1.Cc1ccc(OP(=O)(Oc2ccc(C)cc2)Oc2ccc(C)cc2)cc1.[Co+2].[O-][Cl+3]([O-])([O-])O
[22]
  T/C: 99 % of control
[23]
  T/C: 97 % of control
[24]
  T/C: 97 % of control

## COC(=O)C1CC(C)C1(OC)OC (stereo unspecified)
[1]
  T/C: 106 % of control
[2]
  T/C: 107 % of control
[3]
  T/C: 101 % of control

## O=C(O)CCCC(C(=O)O)N1C(=O)c2ccccc2C1=O (stereo unspecified)
[12]
  T/C: 94 % of control
[13]
  T/C: 93 % of control
[14]
  T/C: 87 % of control

## CCN(CC)C(=O)/C(C)=C1/c2ccccc2S(=O)(=O)N1C
dose: 100.0 mg/kg/injection, schedule: Q04DX003 (ip), vehicle: Klucel (hydroxypropylcellulose) (HPC)
  T/C: 109 % of control
dose: 200.0 mg/kg/injection, schedule: Q04DX003 (ip), vehicle: Klucel (hydroxypropylcellulose) (HPC)
  T/C: 94 % of control
dose: 400.0 mg/kg/injection, schedule: Q04DX003 (ip), vehicle: Klucel (hydroxypropylcellulose) (HPC)
  T/C: 98 % of control

## S=C(S)N1CCCCCC1
dose: 60.0 mg/kg/injection, schedule: Q01DX005 (ip), vehicle: suspension in saline
  T/C: 97 % of control
dose: 120.0 mg/kg/injection, schedule: Q01DX005 (ip), vehicle: suspension in saline
  T/C: 95 % of control

## O=C(Nc1ccccc1Cl)Oc1ccc(-c2ccccc2)cc1Br
[4]
  T/C: 111 % of control
[5]
  T/C: 121 % of control
[8]
  T/C: 104 % of control and 95 % of control

## NC(CO)C(=O)NC1(C(=O)O)CCCC1 (stereo unspecified) (H-[ξS]-[Ac5c]-OH)
dose: 100.0 mg/kg/injection, schedule: Q04DX003 (ip), vehicle: saline with Tween-80
  T/C: 95 % of control
[25]
  T/C: 100 % of control
dose: 400.0 mg/kg/injection, schedule: Q04DX003 (ip), vehicle: saline with Tween-80
  T/C: 120 % of control

## N#Cc1c(-c2ccccc2)c(-c2ccccc2)nn(CCO)c1=O
dose: 25.0 mg/kg/injection, schedule: Q04DX002 (ip), vehicle: distilled water + Tween-80
  T/C: 94 % of control
dose: 50.0 mg/kg/injection, schedule: Q04DX002 (ip), vehicle: distilled water + Tween-80
  T/C: 103 % of control
dose: 100.0 mg/kg/injection, schedule: Q04DX002 (ip), vehicle: distilled water + Tween-80
  T/C: 108 % of control
dose: 200.0 mg/kg/injection, schedule: Q04DX002 (ip), vehicle: distilled water + Tween-80
  T/C: 110 % of control

## CO/N=C/c1ccc([N+](=O)[O-])s1
dose: 12.0 mg/kg/injection, schedule: Q01DX001 (ip), vehicle: other
  T/C: 90 % of control
dose: 25.0 mg/kg/injection, schedule: Q01DX001 (ip), vehicle: other
  T/C: 104 % of control
dose: 50.0 mg/kg/injection, schedule: Q01DX001 (ip), vehicle: other
  T/C: 100 % of control

## Clc1ccccc1C(Nc1nc2ccccc2s1)Nc1nc2ccccc2s1
[10]
  T/C: 102 % of control
[11]
  T/C: 99 % of control
dose: 200.0 mg/kg/injection, schedule: Q01DX005 (ip), vehicle: Klucel (hydroxypropylcellulose) (HPC)
  T/C: 99 % of control

## COC(=O)CCc1ccc(NP(=O)(N2CC2)N2CC2)cc1
dose: 12.5 mg/kg/injection, schedule: Q04DX003 (ip), vehicle: saline with Tween-80
  T/C: 100 % of control
dose: 25.0 mg/kg/injection, schedule: Q04DX003 (ip), vehicle: saline with Tween-80
  T/C: 115 % of control
[7]
  T/C: 150 % of control
dose: 132.0 mg/kg/injection, schedule: Q04DX003 (ip), vehicle: saline with Tween-80
  T/C: 150 % of control
[8]
  T/C: 90 % of control
[25]
  T/C: 156 % of control
dose: 300.0 mg/kg/injection, schedule: Q04DX003 (ip), vehicle: saline with Tween-80
  T/C: 90 % of control

## O=c1c2ccc(Cl)cc2nc2n1OCC2
[22]
  T/C: 106 % of control
[23]
  T/C: 100 % of control
[24]
  T/C: 101 % of control

## N=c1c(C(N)=O)nc(/C=C/c2ccccc2)cn1O
dose: 12.5 mg/kg/injection, schedule: Q01DX009 (ip), vehicle: saline with Tween-80
  T/C: 90 % of control
[4]
  T/C: 90 % of control
[5]
  T/C: 96 % of control

## Nc1cc2c(cc1O)C1C(C3C2C2(Cl)C(Cl)C(Cl)C3(Cl)C2(Cl)Cl)C2(Cl)C(Cl)C(Cl)C1(Cl)C2(Cl)Cl (stereo unspecified)
[19]
  T/C: 100 % of control
[20]
  T/C: 100 % of control
[21]
  T/C: 96 % of control

## CC(=O)NC(N)=NC#N
dose: 50.0 mg/kg/injection, schedule: Q01DX001 (ip), vehicle: saline
  T/C: 98 % of control
dose: 100.0 mg/kg/injection, schedule: Q01DX001 (ip), vehicle: saline
  T/C: 100 % of control
dose: 200.0 mg/kg/injection, schedule: Q01DX001 (ip), vehicle: saline
  T/C: 96 % of control
dose: 400.0 mg/kg/injection, schedule: Q01DX001 (ip), vehicle: saline
  T/C: 103 % of control

## O=c1cc(CCl)occ1O
[6]
  T/C: 100 % of control and 113 % of control
[15]
  T/C: 101 % of control and 103 % of control
[9]
  T/C: 100 % of control and 113 % of control
dose: 400.0 mg/kg/injection, schedule: Q01DX009 (ip), vehicle: saline
  T/C: 110 % of control and 95 % of control

## N=C(N)c1ccc2oc(/C=C/c3nc4ccc(C(=N)N)cc4[nH]3)cc2c1
[22]
  T/C: 98 % of control
[23]
  T/C: 96 % of control
[24]
  T/C: 98 % of control
